Test results as given in patent publication US10981894B2, “Melanocortin subtype-2 receptor (MC2R) antagonists and uses thereof” (Crinetics Pharmaceuticals, Inc., priority 2018, dated 2021).

Biological target: hMC2 receptor (Homo sapiens, UniProt Q01718)
Experiment: hMC2 membrane binding assay ([125I]ACTH (1-39) Tyr23, SPA)
Design: scale not given here
Settings: crude hMC2R membranes from CRE-bla-CHO-K1 cells expressing hMC2 receptor and hMRAP; [125I]ACTH (1-39) Tyr23 0.2 nM; 1.5 hours at room temperature; read-out: MC2R binding potency
Outline: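 CRE-bla-CHO-K1 membranes co-expressing hMC2 receptor and hMRAP, preincubated with WGA PVT SPA beads in pH 7.4 HEPES/MgCl2/CaCl2/0.2% BSA buffer. Compounds (typically 0–10,000 nM final) compete with 0.2 nM [125I]ACTH(1-39) Tyr23 for 1.5 h at room temperature. SPA counts give Ki by non-linear regression.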

Sequence of hMC2 receptor (Q01718 whole entry): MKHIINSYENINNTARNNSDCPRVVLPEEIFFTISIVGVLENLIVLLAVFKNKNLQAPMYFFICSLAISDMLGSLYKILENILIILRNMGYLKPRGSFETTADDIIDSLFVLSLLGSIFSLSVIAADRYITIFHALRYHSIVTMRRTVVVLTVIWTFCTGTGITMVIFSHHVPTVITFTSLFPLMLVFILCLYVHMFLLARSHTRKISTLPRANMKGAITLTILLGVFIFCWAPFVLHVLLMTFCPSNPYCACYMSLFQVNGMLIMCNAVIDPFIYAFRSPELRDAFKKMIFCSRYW
Sequence of hMC2 receptor (Q8TCY5 whole entry partner): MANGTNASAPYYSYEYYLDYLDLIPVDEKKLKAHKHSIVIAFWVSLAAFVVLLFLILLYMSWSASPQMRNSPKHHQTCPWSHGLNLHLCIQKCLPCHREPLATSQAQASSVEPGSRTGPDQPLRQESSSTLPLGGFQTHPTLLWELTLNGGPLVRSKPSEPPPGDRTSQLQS

| Ki | Structure (SMILES) |
| --- | --- |
| < 10 nM | CCOc1ncccc1-c1ccc(N2CCN(C(=O)c3ccc(Cl)cc3C(F)(F)F)C[C@H]2CC)c(C(=O)NCCc2ncc[nH]2)c1 [Compound 1-93, 2-[(2R)-4-[4-chloro-2-(trifluoromethyl)benzoyl]-2-ethylpiperazin-1-yl]-5-(2-ethoxypyridin-3-yl)-N-[2-(1H-imidazol-2-yl)ethyl]benzamide] |
| < 10 nM | CCOc1ncccc1-c1ccc(N2CCN(C(=O)c3ccc(C)cc3N3CC[C@H](NC)C3)C[C@H]2CC)c(C(=O)N[C@@H]2CCNC2)c1 [Compound 1-94, 5-(2-ethoxypyridin-3-yl)-2-[(2R)-2-ethyl-4-{4-methyl-2-[(3S)-3-(methylamino)pyrrolidin-1-yl]benzoyl}piperazin-1-yl]-N-[(3R)-pyrrolidin-3-yl]benzamide] |
| < 10 nM | CCOc1ncccc1-c1ccc(N2CCN(C(=O)c3ccc(Cl)cc3C(F)(F)F)C[C@H]2CC)c(C(=O)NCCNC)c1F [Compound 1-95, 6-[(2R)-4-[4-chloro-2-(trifluoromethyl)benzoyl]-2-ethylpiperazin-1-yl]-3-(2-ethoxypyridin-3-yl)-2-fluoro-N-[2-(methylamino)ethyl]benzamide] |
| < 10 nM | CCOc1ncccc1-c1ccc(N2CCN(C(=O)c3ccc(F)cc3Cl)C[C@H]2CC)c(C(=O)NCCNC)c1F [Compound 1-96, 6-[(2R)-4-(2-chloro-4-fluorobenzoyl)-2-ethylpiperazin-1-yl]-3-(2-ethoxypyridin-3-yl)-2-fluoro-N-[2-(methylamino)ethyl]benzamide] |
| < 10 nM | CCOc1ncccc1-c1ccc(N2CCN(C(=O)c3ccc(Cl)cc3C(F)(F)F)C[C@H]2CC)c(C(=O)NC[C@@H]2CCN2)c1 [Compound 1-97, N-{[(2S)-azetidin-2-yl]methyl}-2-[(2R)-4-[4-chloro-2-(trifluoromethyl)benzoyl]-2-ethylpiperazin-1-yl]-5-(2-ethoxypyridin-3-yl)benzamide] |
| < 10 nM | CCOc1ncccc1-c1ccc(N2CCN(C(=O)c3ccc(Cl)cc3C(F)(F)F)C[C@H]2CC)c(C(=O)NC[C@@H]2CCCN2)c1 [Compound 1-98, 2-[(2R)-4-[4-chloro-2-(trifluoromethyl)benzoyl]-2-ethylpiperazin-1-yl]-5-(2-ethoxypyridin-3-yl)-N-{[(2S)-pyrrolidin-2-yl]methyl}benzamide] |
| < 10 nM | CCOc1ncccc1-c1ccc(N2CCN(C(=O)c3ccc(Cl)cc3C(F)(F)F)C[C@H]2CC)c(C(=O)N[C@@H]2CCCNC2)c1 [Compound 1-99, 2-[(2R)-4-[4-chloro-2-(trifluoromethyl)benzoyl]-2-ethylpiperazin-1-yl]-5-(2-ethoxypyridin-3-yl)-N-[(3R)-piperidin-3-yl]benzamide] |
| < 10 nM | CCOc1ncccc1-c1ccc(N2CCN(C(=O)c3ccc(Cl)cc3C(F)(F)F)C[C@H]2CC)c(C(=O)N[C@H]2CCCNC2)c1 [Compound 1-100, 2-[(2R)-4-[4-chloro-2-(trifluoromethyl)benzoyl]-2-ethylpiperazin-1-yl]-5-(2-ethoxypyridin-3-yl)-N-[(3 S)-piperidin-3-yl]benzamide] |
| < 10 nM | CCOc1ncccc1-c1ccc(N2CCN(C(=O)c3ccc(F)cc3N3CC[C@H](NC)C3)C[C@H]2CC)c(C(=O)N[C@@H]2CCNC2)c1 [Compound 1-101, 5-(2-ethoxypyridin-3-yl)-2-[(2R)-2-ethyl-4-{4-fluoro-2-[(3S)-3-(methylamino)pyrrolidin-1-yl]benzoyl}piperazin-1-yl]-N-[(3R)-pyrrolidin-3-yl]benzamide] |
| < 10 nM | CCOc1ncccc1-c1ccc(N2CCN(C(=O)c3ccc(Cl)cc3C(F)(F)F)C[C@H]2CC)c(C(=O)NC[C@H]2CCN2)c1 [Compound 1-102, N-{[(2R)-azetidin-2-yl]methyl}-2-[(2R)-4-[4-chloro-2-(trifluoromethyl)benzoyl]-2-ethylpiperazin-1-yl]-5-(2-ethoxypyridin-3-yl)benzamide] |
| < 10 nM | CCOc1ncccc1-c1ccc(N2CCN(C(=O)c3ccc(C)cc3N3CCC(CN)C3)C[C@H]2CC)c(C(=O)NCCN)c1 (stereo partly drawn) [Compound 1-104, N-(2-aminoethyl)-2-[(2R)-4-{2-[3-(aminomethyl)pyrrolidin-1-yl]-4-methylbenzoyl}-2-ethylpiperazin-1-yl]-5-(2-ethoxypyridin-3-yl)benzamide] |
| < 10 nM | CCOc1ncccc1-c1ccc(N2CCN(C(=O)c3ccc(C(F)(F)F)cc3N(C)C)C[C@H]2CC)c(C(=O)NCCN)c1 [Compound 1-107, N-(2-aminoethyl)-2-[(2R)-4-[2-(dimethylamino)-4-(trifluoromethyl)benzoyl]-2-ethylpiperazin-1-yl]-5-(2-ethoxypyridin-3-yl)benzamide] |
| < 10 nM | CCOc1ncccc1-c1ccc(N2CCN(C(=O)c3ccc(Cl)cc3C(F)(F)F)C[C@H]2CC)c(C(=O)NC[C@H]2CCCN2)c1 [Compound 1-108, 2-[(2R)-4-[4-chloro-2-(trifluoromethyl)benzoyl]-2-ethylpiperazin-1-yl]-5-(2-ethoxypyridin-3-yl)-N-{[(2R)-pyrrolidin-2-yl]methyl}benzamide] |
| < 10 nM | CCOc1ncccc1-c1ccc(N2CCN(C(=O)c3ccc(Cl)cc3C(F)(F)F)C[C@H]2CC)c(C(=O)NC[C@@H]2CNCCO2)c1 [Compound 1-109, 2-[(2R)-4-[4-chloro-2-(trifluoromethyl)benzoyl]-2-ethylpiperazin-1-yl]-5-(2-ethoxypyridin-3-yl)-N-{[(2S)-morpholin-2-yl]methyl}benzamide] |
| < 10 nM | CCOc1ncccc1-c1ccc(N2CCN(C(=O)c3ccc(C)cc3Cl)C[C@H]2CC)c(C(=O)N[C@@H]2CCNC2)c1F [Compound 1-110, 6-[(2R)-4-(2-chloro-4-methylbenzoyl)-2-ethylpiperazin-1-yl]-3-(2-ethoxypyridin-3-yl)-2-fluoro-N-[(3R)-pyrrolidin-3-yl]benzamide] |
| < 10 nM | CCOc1ncccc1-c1ccc(N2CCN(C(=O)c3ccc(F)cc3C(F)(F)F)C[C@H]2CC)c(C(=O)N[C@@H]2CCNC2)c1F [Compound 1-111, 3-(2-ethoxypyridin-3-yl)-6-[(2R)-2-ethyl-4-[4-fluoro-2-(trifluoromethyl)benzoyl]piperazin-1-yl]-2-fluoro-N-[(3R)-pyrrolidin-3-yl]benzamide] |
| < 10 nM | CCOc1ncccc1-c1ccc(N2CCN(C(=O)c3ccc(Cl)cc3C(F)(F)F)C[C@H]2CC)c(C(=O)NC[C@@H]2CCN2)c1F [Compound 1-112, N-{[(2S)-azetidin-2-yl]methyl}-6-[(2R)-4-[4-chloro-2-(trifluoromethyl)benzoyl]-2-ethylpiperazin-1-yl]-3-(2-ethoxypyridin-3-yl)-2-fluorobenzamide] |
| < 10 nM | CCOc1ncccc1-c1ccc(N2CCN(C(=O)c3ccc(C)cc3Cl)C[C@H]2CC)c(C(=O)NCCNC)c1F [Compound 1-113, 6-[(2R)-4-(2-chloro-4-methylbenzoyl)-2-ethylpiperazin-1-yl]-3-(2-ethoxypyridin-3-yl)-2-fluoro-N-[2-(methylamino)ethyl]benzamide] |
| < 10 nM | CCOc1ncccc1-c1ccc(N2CCN(C(=O)c3ccc(F)cc3C(F)(F)F)C[C@H]2CC)c(C(=O)NCCNC)c1F [Compound 1-114, 3-(2-ethoxypyridin-3-yl)-6-[(2R)-2-ethyl-4-[4-fluoro-2-(trifluoromethyl)benzoyl]piperazin-1-yl]-2-fluoro-N-[2-(methylamino)ethyl]benzamide] |
| < 10 nM | CCOc1ncccc1-c1ccc(N2CCN(C(=O)c3ccc(Cl)cc3N3CC[C@H](N(C)C)C3)C[C@H]2CC)c(C(=O)N[C@@H]2CCNC2)c1 [Compound 1-115, 2-[(2R)-4-{4-chloro-2-[(3S)-3-(dimethylamino)pyrrolidin-1-yl]benzoyl}-2-ethylpiperazin-1-yl]-5-(2-ethoxypyridin-3-yl)-N-[(3R)-pyrrolidin-3-yl]benzamide] |
| < 10 nM | CCOc1ncccc1-c1ccc(N2CCN(C(=O)c3ccc(Cl)cc3C(F)(F)F)C[C@H]2CC)c(C(=O)NCCc2ncc[nH]2)c1F [Compound 1-116, 6-[(2R)-4-[4-chloro-2-(trifluoromethyl)benzoyl]-2-ethylpiperazin-1-yl]-3-(2-ethoxypyridin-3-yl)-2-fluoro-N-[2-(1H-imidazol-2-yl)ethyl]benzamide] |
| < 10 nM | CCOc1ncccc1-c1ccc(N2CCN(C(=O)c3ccc(Cl)cc3C#N)C[C@H]2CC)c(C(=O)NCCN)c1 [Compound 1-117, N-(2-aminoethyl)-2-[(2R)-4-(4-chloro-2-cyanobenzoyl)-2-ethylpiperazin-1-yl]-5-(2-ethoxypyridin-3-yl)benzamide] |
| < 10 nM | CCOc1ncccc1-c1ccc(N2CCN(C(=O)c3ccc(Cl)cc3C(F)(F)F)C[C@H]2CC)c(C(=O)NC[C@H]2CCN2)c1F [Compound 1-123, N-{[(2R)-azetidin-2-yl]methyl}-6-[(2R)-4-[4-chloro-2-(trifluoromethyl)benzoyl]-2-ethylpiperazin-1-yl]-3-(2-ethoxypyridin-3-yl)-2-fluorobenzamide] |
| < 10 nM | CCOc1ncccc1-c1ccc(N2CCN(C(=O)c3ccc(Cl)cc3C(F)(F)F)C[C@H]2CC)c(C(=O)NC[C@H]2CCCN2)c1F [Compound 1-124, 6-[(2R)-4-[4-chloro-2-(trifluoromethyl)benzoyl]-2-ethylpiperazin-1-yl]-3-(2-ethoxypyridin-3-yl)-2-fluoro-N-{[(2R)-pyrrolidin-2-yl]methyl}benzamide] |
| < 10 nM | CCOc1ncccc1-c1ccc(N2CCN(C(=O)c3ccc(Cl)cc3C(F)(F)F)C[C@H]2CC)c(C(=O)NCC2=NCCN2)c1 [Compound 1-125, 2-[(2R)-4-[4-chloro-2-(trifluoromethyl)benzoyl]-2-ethylpiperazin-1-yl]-N-[(4,5-dihydro-1H-imidazol-2-yl)methyl]-5-(2-ethoxypyridin-3-yl)benzamide] |
| < 10 nM | CCOc1ncccc1-c1ccc(N2CCN(C(=O)c3ccc(F)cc3C(F)(F)F)C[C@H]2CC)c(C(=O)NCCNC)n1 [Compound 1-136, 2′-ethoxy-5-[(2R)-2-ethyl-4-[4-fluoro-2-(trifluoromethyl)benzoyl]piperazin-1-yl]-N-[2-(methylamino)ethyl]-[2,3′-bipyridine]-6-carboxamide] |
